Assay results: patent US9062033B2, “Chemical compounds” (Rottapharm Biotech S.r.l., priority 2011, dated 2015)

Assays:
human OX1 receptors = target: T1, human OX1 receptors (Homo sapiens, UniProt O43613); assay: Antagonistic activity against human OX1 receptor, [Ca2+]i fluorimetry (Fluo-4NW) in transfected CHO cells activated with orexin-A; assay type: cell-based; conditions: CHO cells transfected with human recombinant OX1; orexin-A 3 nM; pKb = co-logarithm of apparent dissociation constant, modified Cheng Prusoff
T1 construct: expressed in transfected cells; host or cells: CHO cells
T1 sequence (O43613 1-425): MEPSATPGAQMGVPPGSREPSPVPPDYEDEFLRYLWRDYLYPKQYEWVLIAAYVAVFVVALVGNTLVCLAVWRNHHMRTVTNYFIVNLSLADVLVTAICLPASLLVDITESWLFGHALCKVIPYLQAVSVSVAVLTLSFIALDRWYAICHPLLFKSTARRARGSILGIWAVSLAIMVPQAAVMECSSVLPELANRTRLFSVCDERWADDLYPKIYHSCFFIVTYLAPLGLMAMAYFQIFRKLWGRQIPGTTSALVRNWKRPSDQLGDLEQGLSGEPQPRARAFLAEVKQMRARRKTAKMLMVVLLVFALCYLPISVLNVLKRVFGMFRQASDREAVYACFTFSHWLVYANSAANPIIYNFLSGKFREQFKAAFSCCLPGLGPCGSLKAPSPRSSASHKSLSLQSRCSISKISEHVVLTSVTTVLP
Description: (§1) In a typical experiment, the antagonistic activity against human OX1 and OX2 receptors is determined by using CHO e HEK-293 cells transfected with human recombinant OX1 and OX2 receptors respectively, seeded at density of 2 and 3×10^4 cells/well respectively in a 96 fluorimetry well plate. Thus the plate was loaded with the calcium dye (Fluo-4NW/probenecid in HBSS, Hepes 20 mM, pH 7.4; Invitrogen) at 37° C. for 60 min. Afterward the temperature was equilibrated at 22° C. for 15 min and the [Ca2+]i measured directly on the plate by using a fluorescent plate reader (CellLux Perkin Elmer).
(§2) Invention compounds were dissolved in DMSO, diluted in HBSS (DMSO, 0.3% final) and added to the wells. After 5 min CHO cells were activated with orexin-A, 3 nM while HEK-293 cells were activated with orexin-B, 10 nM.
(§3) The compounds, dissolved in DMSO and diluted in the medium (DMSO, 0.3% final), have been analysed in the 1 nM-1 μM concentration range (every concentration in duplicate). The antagonistic activity has been expressed as pKb (co-logarithm of the apparent dissociation constant calculated by using the modified Cheng Prusoff equation).
(§4) The results are expressed as percent of control specific […] response ((measured specific response/control specific agonist response)×100) obtained in the presence of the test compounds.
(§5) The IC50 values (concentration causing a half-maximal inhibition of the control specific agonist response) were determinated by non-linear regression analysis of the concentration curves generated with mean replicate values using hill equation curve fitting. The IC50 values are obtained by the arithmetical mean of at least two experiments. Compounds of the following example tested according to this example gave pKbs as follows: […]

human OX2 receptors = target: T2, human OX2 receptors (Homo sapiens, UniProt O43614); assay: Antagonistic activity against human OX2 receptor, [Ca2+]i fluorimetry (Fluo-4NW) in transfected HEK-293 cells activated with orexin-B; assay type: cell-based; conditions: HEK-293 cells transfected with human recombinant OX2; orexin-B 10 nM; pKb = co-logarithm of apparent dissociation constant, modified Cheng Prusoff
T2 construct: expressed in transfected cells; host or cells: HEK-293 cells
T2 sequence (O43614 1-444): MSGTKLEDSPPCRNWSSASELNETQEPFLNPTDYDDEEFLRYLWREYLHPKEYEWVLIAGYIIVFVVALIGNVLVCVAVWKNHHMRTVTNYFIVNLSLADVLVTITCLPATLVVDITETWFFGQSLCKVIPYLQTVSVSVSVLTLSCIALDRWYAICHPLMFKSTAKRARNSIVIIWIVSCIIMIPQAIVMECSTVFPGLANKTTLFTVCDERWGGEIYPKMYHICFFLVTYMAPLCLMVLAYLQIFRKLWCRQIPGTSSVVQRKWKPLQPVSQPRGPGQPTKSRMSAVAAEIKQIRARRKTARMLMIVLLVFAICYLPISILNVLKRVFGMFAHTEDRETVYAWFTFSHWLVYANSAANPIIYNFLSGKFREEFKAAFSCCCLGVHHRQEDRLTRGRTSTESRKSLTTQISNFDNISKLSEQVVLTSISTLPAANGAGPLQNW
Description: as §1, §2, §3, §4, §5

Row | Kb (human OX1 receptors) [nM] | Kb (human OX2 receptors) [nM] | Structure (SMILES)
1 | 7.94 | 12.6 | O=C(c1cc(Cl)ccc1-c1ncccn1)N1CC2(CC2)C[C@H]1CNc1cc(C(F)(F)F)ccn1 [Compound 1f, (S)-(5-chloro-2-(pyrimidin-2-yl)phenyl)(6-(((4-(trifluoromethyl)pyridin-2-yl)amino)methyl)-5-azaspiro[2.4]heptan-5-yl)methanone]
2 | 200 | 79.4 | CS(=O)(=O)c1ccc(-c2ccccc2)c(C(=O)N2CC3(CC3)C[C@H]2CNc2ccc(C(F)(F)F)cn2)c1 [Compound 1d, (S)-(4-(methylsulfonyl)-[1,1′-biphenyl]-2-yl)(6-(((5-(trifluoromethyl)pyridin-2-yl)amino)methyl)-5-azaspiro[2.4]heptan-5-yl)methanone]
3 | 126 | 25.1 | Cc1ccc(-c2ncccn2)c(C(=O)N2CC3(CC3)C[C@H]2CNc2nccc3ncccc23)n1 [Compound 3p, (S)-(6-(((1,6-naphthyridin-5-yl)amino)methyl)-5-azaspiro[2.4]heptan-5-yl)(6-methyl-3-(pyrimidin-2-yl)pyridin-2-yl)methanone]
4 | 3.98 | 31.6 | Cc1ccc(-c2ncccn2)c(C(=O)N2CC3(CC3)C[C@H]2CNc2ccc(C(F)(F)F)cn2)n1 [Compound 3a, (S)-(6-methyl-3-(pyrimidin-2-yl)pyridin-2-yl)(6-(((5-(trifluoromethyl)pyridin-2-yl)amino)methyl)-5-azaspiro[2.4]heptan-5-yl)methanone]
5 | 39.8 | 6.31 | O=C(c1cc(Cl)ccc1-c1ncccn1)N1CC2(CC2)C[C@H]1CNc1nccc(C(F)(F)F)n1 [Compound 1q]
6 | 15.8 | 12.6 | Cc1ccc(-c2ncccn2)c(C(=O)N2CC3(CC3)C[C@H]2CNc2cc(C(F)(F)F)cc(C)n2)c1 [Compound 1m, (S)-(5-methyl-2-(pyrimidin-2-yl)phenyl)(6-(((6-methyl-4-(trifluoromethyl)pyridin-2-yl)amino)methyl)-5-azaspiro[2.4]heptan-5-yl)methanone]
7 | 6.31 | 10 | Cc1ccc(-c2ncccn2)c(C(=O)N2CC3(CC3)C[C@H]2CNc2cc(C(F)(F)F)c(Cl)cn2)c1 [Compound 1r, (S)-(6-(((5-chloro-4-(trifluoromethyl)pyridin-2-yl)amino)methyl)-5-azaspiro[2.4]heptan-5-yl)(5-methyl-2-(pyrimidin-2-yl)phenyl)methanone]
8 | 7.94 | 63.1 | O=C(c1cc(Cl)ccc1-c1ncccn1)N1CC2(CC2)C[C@H]1CNc1ccc(C(F)(F)F)cn1 [Compound 1a, (S)-(5-chloro-2-(pyrimidin-2-yl)phenyl)(6-(((5-(trifluoromethyl)pyridin-2-yl)amino)methyl)-5-azaspiro[2.4]heptan-5-yl)methanone]
9 | 2.51 | 10 | Cc1ccc(-c2ccccc2)c(C(=O)N2CC3(CC3)C[C@H]2CNc2ccc(C(F)(F)F)cn2)n1 [Compound 3b, (S)-(6-methyl-3-phenylpyridin-2-yl)(6-(((5-(trifluoromethyl)pyridin-2-yl)amino)methyl)-5-azaspiro[2.4]heptan-5-yl)methanone]
10 | 5.01 | 79.4 | Cc1nc(C(=O)N2CC3(CC3)C[C@H]2CNc2ccc(Cl)cn2)c(-c2ccccc2)s1 [Compound 2a, (S)-(6-(((5-chloropyridin-2-yl)amino)methyl)-5-azaspiro[2.4]heptan-5-yl)(2-methyl-5-phenylthiazol-4-yl)methanone]
11 | 39.8 | 12.6 | O=C(c1c(F)cccc1-c1ncccn1)N1CC2(CC2)C[C@H]1CNc1cc(C(F)(F)F)ccn1 [Compound 1h, (S)-(2-fluoro-6-(pyrimidin-2-yl)phenyl)(6-(((4-(trifluoromethyl)pyridin-2-yl)amino)methyl)-5-azaspiro[2.4]heptan-5-yl)methanone]
12 | 15.8 | 2.51 | Cc1cc(C(F)(F)F)cc(NC[C@@H]2CC3(CC3)CN2C(=O)c2nc(C)sc2-c2ccccc2)n1 [Compound 2k, (S)-(6-(((6-methyl-4-(trifluoromethyl)pyridin-2-yl)amino)methyl)-5-azaspiro[2.4]heptan-5-yl)(2-methyl-5-phenylthiazol-4-yl)methanone]
13 | 79.4 | 20 | Cc1ccc(-c2ncccn2)c(C(=O)N2CC3(CC3)C[C@H]2CNc2nccc(C(F)(F)F)n2)c1 [Compound 1p, (S)-(5-methyl-2-(pyrimidin-2-yl)phenyl)(6-(((4-(trifluoromethyl)pyrimidin-2-yl)amino)methyl)-5-azaspiro[2.4]heptan-5-yl)methanone]
14 | 3.98 | 126 | O=C(c1ncccc1-c1ccccn1)N1CC2(CC2)C[C@H]1CNc1ccc(C(F)(F)F)cn1 [Compound E7, (S)-[2,3′-bipyridin]-2′-yl(6-(((5-(trifluoromethyl)pyridin-2-yl)amino)methyl)-5-azaspiro[2.4]heptan-5-yl)methanone]
15 | 2.51 | 2.51 | Cc1nc(C(=O)N2CC3(CC3)C[C@H]2CNc2nccc3ccccc23)c(-c2ccccc2)s1 [Compound 2e, (S)-(6-((isoquinolin-1-ylamino)methyl)-5-azaspiro[2.4]heptan-5-yl)(2-methyl-5-phenylthiazol-4-yl)methanone]
16 | 39.8 | 15.8 | Cc1ccc(OCc2ccc(F)cc2)c(C(=O)N2CC3(CC3)C[C@H]2CNc2ccc(C(F)(F)F)cn2)n1 [Compound 3m, (S)-(3((4-fluorobenzyl)oxy)-6-methylpyridin-2-yl)(6-(((5-(trifluoromethyl)pyridin-2-yl)amino)methyl)-5-azaspiro[2.4]heptan-5-yl)methanone]
17 | 3.98 | 20 | Cc1nc(C(=O)N2CC3(CC3)C[C@H]2CNc2ccc(C(F)(F)F)cn2)c(-c2ccccc2)s1 [Compound 2d, (S)-(2-methyl-5-phenylthiazol-4-yl)(6-(((5-(trifluoromethyl)pyridin-2-yl)amino)methyl)-5-azaspiro[2.4]heptan-5-yl)methanone]
18 | 6.31 | 39.8 | Cc1ccc(-c2ncccn2)c(C(=O)N2CC3(CC3)C[C@H]2CNc2cnc(C(F)(F)F)cn2)n1 [Compound 3h, (S)-(6-methyl-3-(pyrimidin-2-yl)pyridin-2-yl)(6-(((5-(trifluoromethyl)pyrazin-2-yl)amino)methyl)-5-azaspiro[2.4]heptan-5-yl)methanone]
19 | 5.01 | 25.1 | Cc1ccc(-c2ncccn2)c(C(=O)N2CC3(CC3)C[C@H]2CNc2ncc(C(F)(F)F)cc2F)c1 [Compound 1l, (S)-(6-(((3-fluoro-5-(trifluoromethyl)pyridin-2-yl)amino)methyl)-5-azaspiro[2.4]heptan-5-yl)(5-methyl-2-(pyrimidin-2-yl)phenyl)methanone]
20 | 5.01 | 10 | Cc1ccc(-c2ncccn2)c(C(=O)N2CC3(CC3)C[C@H]2CNc2ncc(C(F)(F)F)cc2Cl)n1 [Compound 3g, (S)-(6-(((3-chloro-5-(trifluoromethyl)pyridin-2-yl)amino)methyl)-5-azaspiro[2.4]heptan-5-yl)(6-methyl-3-(pyrimidin-2-yl)pyridin-2-yl)methanone]
21 | 50.1 | 25.1 | Cc1cccc(NC[C@@H]2CC3(CC3)CN2C(=O)c2nc(C)sc2-c2ccccc2)n1 [Compound 2c, (S)-(2-methyl-5-phenylthiazol-4-yl)(6-(((6-methylpyridin-2-yl)amino)methyl)-5-azaspiro[2.4]heptan-5-yl)methanone]
